The supplement of paper PMC13380429

Tests used:
Settings in all cases: 72 h
U2OS [1] = test: drug sensitivity score (DSS) for viability; higher = more toxic; extreme values may be limits of the assay
Vero E6 [2] = test: as above
HepG2 [3] = test: as above
Calu-3 [4] = test: as above
U2OS [5] = test: relative viability EC50 (midpoint between 100% and the lowest measured viability); higher = less toxic
Caco-2 [6] = test: as above
Vero E6 [7] = test: as above
HepG2 [8] = test: as above
U2OS [9] = test: cell viability relative to DMSO; higher = less toxic
Caco-2 [10] = test: as above
Vero E6 [11] = test: as above
HepG2 [12] = test: as above
Caco-2 [13] = test: drug sensitivity score (DSS) for viability; higher = more toxic; extreme values may be limits of the assay
Calu-3 [14] = test: cell viability relative to DMSO; higher = less toxic

Row | Compound | drug sensitivity score (U2OS [1]) | drug sensitivity score (Vero E6 [2]) | drug sensitivity score (HepG2 [3]) | drug sensitivity score (Calu-3 [4]) | relative viability EC50 (U2OS [5]) [µM] | relative viability EC50 (Caco-2 [6]) [µM] | relative viability EC50 (Vero E6 [7]) [µM] | relative viability EC50 (HepG2 [8]) [µM] | cell viability (U2OS [9]; 1 nM) [%] | cell viability (U2OS [9]; 10 nM) [%] | cell viability (U2OS [9]; 100 nM) [%] | cell viability (U2OS [9]; 1000 nM) [%] | cell viability (U2OS [9]; 10000 nM) [%] | cell viability (Caco-2 [10]; 1 nM) [%] | cell viability (Caco-2 [10]; 10 nM) [%] | cell viability (Caco-2 [10]; 100 nM) [%] | cell viability (Caco-2 [10]; 1000 nM) [%] | cell viability (Caco-2 [10]; 10000 nM) [%] | cell viability (Vero E6 [11]; 1 nM) [%] | cell viability (Vero E6 [11]; 10 nM) [%] | cell viability (Vero E6 [11]; 100 nM) [%] | cell viability (Vero E6 [11]; 1000 nM) [%] | cell viability (Vero E6 [11]; 10000 nM) [%] | cell viability (HepG2 [12]; 1 nM) [%] | cell viability (HepG2 [12]; 10 nM) [%] | cell viability (HepG2 [12]; 100 nM) [%] | cell viability (HepG2 [12]; 1000 nM) [%] | cell viability (HepG2 [12]; 10000 nM) [%] | drug sensitivity score (Caco-2 [13]) | cell viability (Calu-3 [14]; 1 nM) [%] | cell viability (Calu-3 [14]; 10 nM) [%] | cell viability (Calu-3 [14]; 100 nM) [%] | cell viability (Calu-3 [14]; 1000 nM) [%] | cell viability (Calu-3 [14]; 10000 nM) [%]
1 | O=C(CCCN1CCN(c2ccccn2)CC1)c1ccc(F)cc1 [azaperone] | 0 | 0 | 0.7 | 0.1 |  |  |  |  |  |  |  |  |  |  |  |  |  |  |  |  |  |  |  |  |  |  |  |  |  |  |  |  |  | 
2 | CN(C)CCn1nnnc1SCC1=C(C(=O)O)N2C(=O)[C@@H](NC(=O)Cc3csc(N)n3)[C@H]2SC1 [cefotiam] | 0 | 0 | 0 |  | > 10 | > 10 | > 10 | > 10 | 100 | 97.2 | 106 | 103 | 103 | 106 | 96.7 | 101 | 103 | 104 | 99.3 | 95.5 | 96 | 88.1 | 104 | 102 | 94.5 | 99.7 | 96.5 | 104 | 0 |  |  |  |  | 
3 | CCCNC(=O)NS(=O)(=O)c1ccc(Cl)cc1 [chlorpropamide] | 0 | 0 | 0 |  | > 10 | > 10 | > 10 | > 10 | 97.4 | 103 | 97.4 | 99.9 | 93.6 | 92.6 | 108 | 87.1 | 99.1 | 95.2 | 97.5 | 98.2 | 102 | 103 | 104 | 104 | 103 | 102 | 95.4 | 99.8 | 0 |  |  |  |  | 
4 | C#C[C@]1(O)CC[C@H]2[C@@H]3CCC4=Cc5oncc5C[C@]4(C)[C@H]3CC[C@@]21C [danazol] | 0 | 0 | 0 | 0 |  |  |  |  |  |  |  |  |  |  |  |  |  |  |  |  |  |  |  |  |  |  |  |  |  |  |  |  |  | 
5 | CCN1C(=O)NC(c2ccccc2)C1=O (centres undefined) [ethotoin] | 0 | 0 | 0 |  |  |  |  |  |  |  |  |  |  |  |  |  |  |  |  |  |  |  |  |  |  |  |  |  |  |  |  |  |  | 
6 | CCOc1ccc2nc(S(N)(=O)=O)sc2c1 [ethoxzolamide] | 0 | 0 | 0 | 0 |  |  |  |  | 96.6 | 97.9 | 97.6 | 99.3 | 105 |  | 102 | 135 | 98.6 | 95.5 | 84.1 | 93.1 | 89.4 | 96.3 | 116 | 101 | 104 | 98.6 | 125 | 116 | 0 | 95.3 | 101 | 101 | 101 | 113
7 | CCOC(=O)c1ccc(NC2CCCCC2)c(N)c1 [ferrostatin-1] | 0 | 0 | 0 |  | > 10 | > 10 | > 10 | > 10 | 97.5 | 96.6 | 98.6 | 98.9 | 96.6 | 99.8 | 99.9 | 102 | 102 | 86.1 | 97.6 | 101 | 94.3 | 95.1 | 100 | 94 | 108 | 97.8 | 97 | 113 | 0.1 |  |  |  |  | 
8 | CC1CCc2cc(F)cc3c(=O)c(C(=O)O)cn1c23 (centres undefined) [flumequine] | 0 | 0 | 0 |  | > 10 | > 10 | > 10 | > 10 | 98.1 | 98.3 | 102 | 97.9 | 104 | 91 | 75.1 | 96.5 | 112 | 121 | 103 | 94.7 | 107 | 108 | 92.1 | 95.3 | 97.7 | 89.4 | 96.4 | 92.7 | 0 |  |  |  |  | 
9 | C/C(=C\c1csc(C)n1)[C@@H]1C[C@@H]2O[C@]2(C)CCC[C@H](C)[C@H](O)[C@@H](C)C(=O)C(C)(C)[C@@H](O)CC(=O)N1 [ixabepilone] | 10.9 | 9.1 | 21.7 | 7.2 | 0.556 | 0.0664 | 0.493 | 0.0721 | 99.7 | 99.3 | 101 | 41.3 | 28 | 101 | 98.4 | 65.2 | 48.8 | 49.2 | 108 | 108 | 84.6 | 60.2 | 36.5 | 107 | 103 | 43.6 | 33.6 | 17.3 | 13.6 | 108 | 108 | 88.1 | 67.2 | 60.8
10 | C=C1/C(=C\C=C2/CCC[C@]3(C)[C@@H]([C@H](C)OCCC(C)(C)O)CC[C@@H]23)C[C@@H](O)C[C@@H]1O [maxacalcitol] | 0 | 0 | 0 |  | > 10 | > 10 | > 10 | > 10 | 102 | 103 | 93.5 | 91.6 | 97.4 | 91.9 | 91.3 | 94.1 | 87.8 | 101 | 109 | 105 | 102 | 100 | 94.6 | 105 | 99.3 | 98.3 | 91.5 | 98.5 | 0 |  |  |  |  | 
11 | C[N+](C)(C)NCCC(=O)O [meldonium] | 0 | 0 | 0 |  | > 10 | > 10 | > 10 | > 10 | 102 | 99.1 | 104 | 97.7 | 101 | 96.1 | 101 | 102 | 92 | 102 | 99.1 | 105 | 95.5 | 97 | 101 | 97.6 | 96.1 | 98.4 | 107 | 101 | 0 |  |  |  |  | 
12 | N.N.O=C([O-])C[O-].[Pt+2] [nedaplatin] |  |  | 0 |  |  |  |  |  |  |  |  |  |  |  |  |  |  |  |  |  |  |  |  |  |  |  |  |  |  |  |  |  |  | 
13 | C#C[C@]1(O)CC[C@H]2[C@@H]3CCC4=C(CCC(=O)C4)[C@H]3CC[C@@]21C [noretynodrel] |  | 0 |  |  |  | > 10 | > 10 |  |  |  |  |  |  | 99.5 | 105 | 104 | 96.1 | 99 | 95.2 | 99 | 93.7 | 95.9 | 101 |  |  |  |  |  | 0 |  |  |  |  | 
14 | C[C@H](/C=C/[C@H](C)C(C)(C)O)[C@H]1CC[C@H]2/C(=C/C=C3C[C@@H](O)C[C@H](O)C3)CCC[C@]12C [paricalcitol] | 0 | 0 | 0.9 |  | > 10 | > 10 | > 10 | > 10 | 107 | 98.1 | 98.9 | 97.6 | 99.3 | 102 | 101 | 98.8 | 89.8 | 96.5 | 96.6 | 97.3 | 95.4 | 103 | 101 | 101 | 99.2 | 99.3 | 95.6 | 82.1 | 0.1 |  |  |  |  | 
15 | CC(=O)c1ccc2c(c1)N(CCCN1CCC(CCO)CC1)c1ccccc1S2 [piperacetazine] | 0 | 0 | 0.9 | 0 |  |  |  |  |  |  |  |  |  |  |  |  |  |  |  |  |  |  |  |  |  |  |  |  |  |  |  |  |  | 
16 | Cc1cc(CC(C)CC(C)(C)C)n(O)c(=O)c1 (centres undefined) [piroctone-olamine] | 4.2 | 0 | 0 | 3.4 |  |  | > 10 | > 10 | 95.1 | 93.9 | 100 | 88 | 54.8 | 100 | 96.3 | 103 | 97.6 | 68 | 102 | 96.1 | 104 | 95.5 | 108 | 97.6 | 102 | 102 | 110 | 93.3 | 1.8 | 98 | 97.1 | 102 | 80 | 72.4
17 | c1ccc2c(Oc3nc(Nc4ccc(N5CCOCC5)cc4)c4ncn(C5CCCCC5)c4n3)cccc2c1 [purmorphamine] |  | 0 | 1.7 | 0.7 |  | > 10 | > 10 | > 10 |  |  |  |  |  | 94.9 | 94.2 | 89.8 | 98.7 | 85.9 | 99.2 | 96.1 | 100 | 91.7 | 90.1 | 97.4 | 105 | 103 | 91.9 | 77.8 | 0 | 92.7 | 92.4 | 94.3 | 106 | 74.3
18 | C/C(=N\NC(=N)N)c1cc(NC(=O)CCCCCCCCC(=O)Nc2cc(/C(C)=N/NC(=N)N)cc(/C(C)=N/NC(=N)N)c2)cc(/C(C)=N/NC(=N)N)c1 [semapimod] | 1.3 | 1.2 | 3 | 3.3 |  |  | > 10 |  | 101 | 103 | 96.3 | 102 | 67.6 | 99.4 | 103 | 106 | 91.1 | 71 | 100 | 93.4 | 92.1 | 94.7 | 75.9 | 91.9 | 99.6 | 104 | 90.3 | 65.6 | 2.5 | 98.5 | 98.6 | 102 | 88.1 | 65.8
19 | CC(C)N1CCN(c2ccc(OCC3COC(Cn4cncn4)(c4ccc(Cl)cc4Cl)O3)cc2)CC1 (centres undefined) [terconazole] | 0 | 1.9 | 3.3 | 2.6 | > 10 |  | > 10 |  | 97.4 | 104 | 105 | 104 | 93.8 | 90.6 | 98.2 | 94.3 | 108 | 70.9 | 116 | 96.8 | 106 | 90.8 | 76.8 | 124 | 121 | 124 | 89.8 | 62.6 | 0.9 | 103 | 105 | 89.1 | 97.8 | 54.7
20 | COc1cc(/C=C(\C#N)C(N)=O)cc(CSc2nc3ccccc3s2)c1O [tyrphostin-AG-825] | 0 | 0 | 0 |  | > 10 | > 10 | > 10 | > 10 | 94.7 | 99.9 | 97.7 | 96 | 101 | 102 | 103 | 96.2 | 107 | 96.4 | 92.6 | 97 | 94.7 | 93.8 | 105 | 105 | 92.4 | 103 | 97.3 | 108 | 0 |  |  |  |  | 
